Calls of active or inactive are those of the source. The calls are words filed in the database; no cut-off is given here.
Experiments:
Pantetheinase [1] = biological target: T1, Pantetheinase (Homo sapiens, UniProt O95497); experiment: Human recombinant vanin-1 assay
T1 sequence (O95497 whole entry): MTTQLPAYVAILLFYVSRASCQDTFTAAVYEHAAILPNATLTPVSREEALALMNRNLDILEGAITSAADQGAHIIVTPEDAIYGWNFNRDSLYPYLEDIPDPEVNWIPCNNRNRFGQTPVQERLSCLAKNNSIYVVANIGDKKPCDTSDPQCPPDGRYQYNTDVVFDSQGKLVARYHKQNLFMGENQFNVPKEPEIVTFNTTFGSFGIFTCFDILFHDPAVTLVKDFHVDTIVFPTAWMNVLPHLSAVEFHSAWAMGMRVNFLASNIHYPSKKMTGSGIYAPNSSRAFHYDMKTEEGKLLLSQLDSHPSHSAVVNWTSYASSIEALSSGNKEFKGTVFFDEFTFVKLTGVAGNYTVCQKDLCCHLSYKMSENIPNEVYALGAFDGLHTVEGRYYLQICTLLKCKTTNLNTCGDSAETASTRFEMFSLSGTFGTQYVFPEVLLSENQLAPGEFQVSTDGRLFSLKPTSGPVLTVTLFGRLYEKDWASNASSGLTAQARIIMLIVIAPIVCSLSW

Pantetheinase [2] = biological target: T2, Pantetheinase (Mus musculus, UniProt Q9Z0K8); experiment: Mouse recombinant vanin-1 assay
T2 sequence (Q9Z0K8 whole entry): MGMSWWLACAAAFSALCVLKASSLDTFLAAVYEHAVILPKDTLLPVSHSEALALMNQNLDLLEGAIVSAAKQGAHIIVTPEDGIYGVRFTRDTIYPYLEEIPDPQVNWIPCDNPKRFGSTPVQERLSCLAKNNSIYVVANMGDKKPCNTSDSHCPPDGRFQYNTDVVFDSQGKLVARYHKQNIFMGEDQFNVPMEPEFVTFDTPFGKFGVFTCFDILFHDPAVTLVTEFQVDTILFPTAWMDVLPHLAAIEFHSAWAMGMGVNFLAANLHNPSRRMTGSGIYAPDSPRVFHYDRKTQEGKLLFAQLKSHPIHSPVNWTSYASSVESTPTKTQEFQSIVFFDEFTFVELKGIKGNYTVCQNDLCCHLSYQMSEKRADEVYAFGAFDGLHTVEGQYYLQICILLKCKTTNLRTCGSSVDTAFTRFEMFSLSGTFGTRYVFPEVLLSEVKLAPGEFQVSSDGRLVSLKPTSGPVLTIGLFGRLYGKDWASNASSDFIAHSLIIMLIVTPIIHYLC

Pantetheinase [3] = biological target: T1, Pantetheinase; experiment: Human plasma vanin-1 assay
Pantetheinase [4] = biological target: T2, Pantetheinase; experiment: Mouse plasma vanin-1 assay
Vanin 1 = biological target: T3, Vanin 1 (Rattus norvegicus, UniProt Q4KLZ0)
T3 sequence (Q4KLZ0 whole entry): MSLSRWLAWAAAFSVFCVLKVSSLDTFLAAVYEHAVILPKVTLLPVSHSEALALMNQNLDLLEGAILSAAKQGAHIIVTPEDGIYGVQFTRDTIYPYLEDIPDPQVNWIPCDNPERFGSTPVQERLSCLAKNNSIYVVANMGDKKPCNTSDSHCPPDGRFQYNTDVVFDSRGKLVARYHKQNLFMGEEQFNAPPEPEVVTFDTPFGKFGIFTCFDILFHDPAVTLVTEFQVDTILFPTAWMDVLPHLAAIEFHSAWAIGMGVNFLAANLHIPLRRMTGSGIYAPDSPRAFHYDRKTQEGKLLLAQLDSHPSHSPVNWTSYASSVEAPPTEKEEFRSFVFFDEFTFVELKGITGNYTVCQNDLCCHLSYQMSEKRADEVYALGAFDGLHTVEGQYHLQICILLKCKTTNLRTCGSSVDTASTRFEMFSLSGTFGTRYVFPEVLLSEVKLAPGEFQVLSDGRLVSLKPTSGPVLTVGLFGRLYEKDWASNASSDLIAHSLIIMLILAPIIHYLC

Row | IC50 (Pantetheinase [1]) | IC50 (Pantetheinase [3]) | Structure (SMILES) | IC50 (Pantetheinase [2]) | IC50 (Pantetheinase [4]) | IC50 (Vanin 1)
1 | 17.6 µM (not active) | 3 µM (not active) | Cc1nc(NCc2cnccn2)ncc1C(=O)N1CCC2(CCOCC2)C1 [PFI-653-N] | 15 µM (not active) | 15 µM (not active) | –
2 | – | – | O=C(c1cnc(NCc2cnccn2)nc1)N1CCC2(CCOCC2)C1 [PFI-653] | 0.0245 µM (active) | 0.0534 µM (active) | 12 nM (active)
